# Values of other authors as cited in publication PMC4738315, “How to unveil self-quenched fluorophores and subsequently map the subcellular distribution of exogenous peptides” (Scientific Reports, 2016).
# pKd: −log10 of the molar value.
# Target: anionic phospholipids (DOPC/DOPG or POPC/POPG)
# Conditions: POPC/POPG 75:25; ref 9 (Gonçalves et al., 2005); read-out: Affinity for PLs, Kd
# From the text: page 25: Supplementary Table 1: Sequences of the three studied CPPs and their respective affinities for glycosaminoglycans or anionic phospholipids. Peptide Sequence Affinity for HS, Kd, µM[a] Affinity for PLs, Kd, µM Penetratin (Pen)3 RQIKIWFQNRRMKWKK nd[b] 63 (DOPC/DOPG 90:10)4 Tat peptide (Tat)5 YGRKKRRQRRR 1.676 83 (POPC/POPG 75:25)7 Arg98 RRRRRRRRR 0.329 12 (POPC/POPG 75:25)9 [a] HS: heparan sulfate. [b] nd: not determined. 25
sequence,measurement,value
"RRRRRRRRR [Arg9, nona-arginine, nona-arginine cell-penetrating peptide]",pKd,4.92
